The record followed here is patent publication US20230286930A1, “N -SUBSTITUTED 4-(1,3-ARYLOXAZOLO-2-YL)PHENYL COMPOUNDS FOR THE TREATMENT AND PROPHYLAXIS OF HEPATITIS B VIRUS INFECTION” (Hoffmann-La Roche Inc., priority 2020, published 2023).

A short description of data set [1]: PHH natural infection assay, cytotoxicity (Cell Counting Kit-8). The format is cell-based. To be noted: human. The method in brief: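 Primary human hepatocytes infected with HBV (200 GE/cell, 4% PEG8000) for 24 h, then sandwich-cultured 72 h. Compounds were added in two 72-h refreshes. Supernatant HBsAg/HBeAg measured by AlphaLISA and HBV DNA by quantitative fluorescence kit. Cytotoxicity read by CCK-8.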
On the technique in general: Formazan colour is commonly taken as a measure of viable cells.

In another data set the test system is HBsAg. As to the kind of experiment: PHH natural infection assay, HBsAg (alphalisa). In kind it is cell-based, HBV. The settings on record: Hepatitis B virus, read-out: HBsAg IC50. The method in brief: (§1)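 Primary human hepatocytes infected with HBV at 200 GE/cell with 4% PEG8000 for 24 h, then sandwich-cultured 72 h. Compounds applied in two 72-hour treatments; supernatant HBsAg and HBeAg measured by AlphaLISA.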
(In Alpha technology, singlet oxygen from a donor bead excites a nearby acceptor bead.)

Another data set has as its system HBeAg. The data set can be described thus: PHH natural infection assay, HBeAg (alphalisa). To be noted: Hepatitis B virus, read-out: HBeAg IC50. In kind it is cell-based, HBV. In outline:
as §1

For `O=C(Nc1ccc(-c2nc3cc(Cl)ccc3o2)cc1)c1ccccn1` [Example 74, N-[4-(5-chloro-1,3-benzoxazol-2-yl)phenyl]pyridine-2-carboxamide], the CC50 at 144 h in data set [1] was more than 100000 nM. The IC50 worked out at 4100 nM in the data set with HBsAg and 5440 nM with HBeAg.

Take `O=C(Nc1ccc(-c2nc3cc(Cl)ccc3o2)cc1)C1CCOC1` (stereo not drawn) [Example 75, N-[4-(5-chloro-1,3-benzoxazol-2-yl)phenyl]tetrahydrofuran-3-carboxamide]: the cytotoxic concentration (CC50) at 144 h in data set [1] was more than 100000 nM. In addition, the half-inhibitory concentration (IC50) in the data set with HBsAg came out at 1100 nM; in the data set with HBeAg, 1340 nM.

In data set [1], `O=C(Nc1ccc(-c2nc3cc(Cl)ccc3o2)cc1)C12CC(C1)C2` [Example 76, N-[4-(5-chloro-1,3-benzoxazol-2-yl)phenyl]bicyclo[1.1.1]pentane-1-carboxamide] had a CC50 at 144 h of more than 100000 nM. Besides, the IC50 in the data set on HBsAg came out at 1590 nM; with HBeAg, 2110 nM.

With `CC(O)C(=O)Nc1ccc(-c2nc3cc(Cl)ccc3o2)cc1` (stereo not drawn) [Example 77, N-[4-(5-chloro-1,3-benzoxazol-2-yl)phenyl]-2-hydroxy-propanamide], the CC50 at 144 h in data set [1] was more than 100000 nM. Further, the IC50 in the data set with HBsAg stood at 2850 nM; in the data set on HBeAg it was 2540 nM.

For `Cc1cnc(C(=O)Nc2ccc(-c3nc4ccc(F)c(F)c4o3)cc2)o1` [Example 78, N-[4-(6,7-difluoro-1,3-benzoxazol-2-yl)phenyl]-5-methyl-oxazole-2-carboxamide], the CC50 at 144 h in data set [1] is more than 100000 nM. The IC50 in the data set with HBsAg turned out to be 810 nM; in the data set on HBeAg, 1110 nM.

With `Cc1coc(C(=O)Nc2ccc(-c3nc4ccc(F)c(F)c4o3)cc2)n1` [Example 79, N-[4-(6,7-difluoro-1,3-benzoxazol-2-yl)phenyl]-4-methyl-oxazole-2-carboxamide], the CC50 at 144 h in data set [1] was more than 100000 nM. Besides, the half-inhibitory concentration (IC50) in the data set on HBsAg was found to be 820 nM; in the data set on HBeAg it was 1030 nM.

The compound `Cc1nnc(C(=O)Nc2ccc(-c3nc4ccc(F)c(F)c4o3)cc2)o1` [Example 80, N-[4-(6,7-difluoro-1,3-benzoxazol-2-yl)phenyl]-5-methyl-1,3,4-oxadiazole-2-carboxamide] gave a half-maximal cytotoxic concentration (CC50) at 144 h in data set [1] of more than 100000 nM. The values for the IC50 in the data set with HBsAg and in the data set with HBeAg were 1340 nM and 2110 nM, respectively.

In data set [1], `Cc1ncc(C(=O)Nc2ccc(-c3nc4ccc(F)c(F)c4o3)cc2)o1` [Example 81, N-[4-(6,7-difluoro-1,3-benzoxazol-2-yl)phenyl]-2-methyl-oxazole-5-carboxamide] showed a CC50 at 144 h of more than 100000 nM. Moreover, the IC50 is 1430 nM with HBsAg and 2060 nM in the data set on HBeAg.

With `O=C(Nc1ccc(-c2nc3ccc(F)c(F)c3o2)cc1)C1CCOC1` (stereo not drawn) [Example 82, N-[4-(6,7-difluoro-1,3-benzoxazol-2-yl)phenyl]tetrahydrofuran-3-carboxamide], the half-maximal cytotoxic concentration (CC50) at 144 h in data set [1] is more than 100000 nM. The IC50 in the data set with HBsAg worked out at 520 nM; with HBeAg, 550 nM.

`O=C(Nc1ccc(-c2nc3ccc(F)c(F)c3o2)cc1)C1CCS(=O)(=O)C1` (stereo not drawn) [Example 83, N-[4-(6,7-difluoro-1,3-benzoxazol-2-yl)phenyl]-1,1-dioxo-thiolane-3-carboxamide] gave a cytotoxic concentration (CC50) at 144 h in data set [1] of more than 100000 nM. The figures for the half-inhibitory concentration (IC50) in the data set on HBsAg and in the data set on HBeAg were 1790 nM and 2540 nM, respectively.

Regarding `O=C(Nc1ccc(-c2nc3c(F)cc(F)cc3o2)cc1)C1CCOC1` (stereo not drawn) [Example 84, N-[4-(4,6-difluoro-1,3-benzoxazol-2-yl)phenyl]tetrahydrofuran-3-carboxamide], the CC50 at 144 h in data set [1] was more than 100000 nM. The IC50 with HBsAg came out at 1400 nM; with HBeAg, 2010 nM.

Turning to `O=C(Nc1ccc(-c2nc3cccc(Cl)c3o2)cc1)C1CCS(=O)(=O)C1` (stereo not drawn) [Example 85, N-[4-(7-chloro-1,3-benzoxazol-2-yl)phenyl]-1,1-dioxo-thiolane-3-carboxamide], the CC50 at 144 h in data set [1] was more than 100000 nM. Further, the 50% inhibitory concentration (IC50) in the data set on HBsAg came to 2680 nM; in the data set on HBeAg, 1720 nM.

The CC50 is the concentration that lowers cell viability or growth by half. A high value points to better tolerance by the cells. What is called IC50 is the midpoint of a concentration-inhibition curve.
